Experimental data from US20050020544A1, “Bicyclic CB2 cannabinoid receptor ligands” (priority 2002, published 2005).

Tests used:
[1] = target: T1, human CB1 receptor (Homo sapiens, UniProt P21554); assay: biochemical; format: binding; details: displacement of [3H]CP55940, hCB1 HEK-293 membranes; read-out: CB1 IC50
T1 construct: purchased Perkin Elmer/NEN; host or cells: HEK-293 cells, stably transfected (membranes)
Procedure: (§1) In the present invention, binding affinity is represented by the IC50 value, namely the concentration of a test compound that will displace 50% of a radiolabeled agonist from the CB receptors. […] Preferably these ratios will be obtained for human CB1 and CB2 receptors. The selectivity toward CB2, denoted CB2/CB1 affinity, is calculated as the IC50 value obtained by the test compound for the displacement of the CB1 specific radioligand divided by the IC50 value obtained for the displacement of the CB2 specific radioligand, i.e. the IC50 CB1/IC50 CB2.
The CB1 binding assays were performed by testing the ability of the new compounds to displace [^3H]CP55940 from the CB1 receptor on membranes derived from hCB1 stably transfected HEK-293 cells (Perkin Elmer/NEN). Membranes were diluted in the assay buffer (50 mM Tris-HCl, 2.5 mM EDTA, 5 mM MgCl2, 1 mg/ml BSA, pH=7.4) to 500 μg protein/ml. 50 μl of diluted membranes (25 μg) were incubated with [^3H]CP55940 in the presence or absence of the bicyclic test compounds in a total volume of 0.5 ml. Tested compounds were dissolved in DMSO and diluted in the assay buffer to a final concentration of 0.1% solvent. Control samples were added with identical amount of vehicle. Non-specific binding was measured by the addition of 10 μM of WIN 55212-2. Following 1.5 hours incubation at 30° C. reactions were filtered through Whatman 934A/H filters (presoaked with 0.1% Polyethylenimine (PEI)).
(§2) Binding to CB1 is measured by competitive inhibition of [^3H]CP55940 in HEK-293 cells stably transfected with the human CB1 receptor gene. Binding to CB2 is measured by competitive inhibition of [^3H]WIN55212-2 in CHO cells stably transfected with the human CB2 receptor gene.

[2] = target: T2, human CB2 receptor (Homo sapiens, UniProt P34972); assay: Adenylylcyclase assay: forskolin-activated cAMP in CB2 transfected HEK-293 cells; format: cell-based; details: CB2 receptor transfected HEK-293, 1 μM forskolin
T2 sequence (P34972 whole entry): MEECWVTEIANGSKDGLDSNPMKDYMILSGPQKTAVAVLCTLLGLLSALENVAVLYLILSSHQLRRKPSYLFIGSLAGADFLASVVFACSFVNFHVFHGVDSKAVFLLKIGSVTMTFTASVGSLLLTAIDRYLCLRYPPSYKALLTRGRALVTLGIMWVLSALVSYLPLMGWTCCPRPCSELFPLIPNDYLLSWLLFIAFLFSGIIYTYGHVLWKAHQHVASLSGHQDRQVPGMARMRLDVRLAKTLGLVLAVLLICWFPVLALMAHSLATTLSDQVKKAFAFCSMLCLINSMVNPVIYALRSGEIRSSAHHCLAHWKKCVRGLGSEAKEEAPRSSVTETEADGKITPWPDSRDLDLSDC
Procedure: Cannabinoids and derivatives bind to G-protein-coupled CB1 and CB2 receptors and exert their activity via the inhibition of adenylylcyclase activity. An adenylylcyclase assay forms a basis for the functional analysis of the compounds by determining their capacity to inhibit or promote forskolin-activated cAMP production. The assay is carried out according to Chin et al. (Chin, C. N. et al., J. Neurochem. 70: 366-73, 1998). Briefly, HEK-293 human kidney cells (ATCC#CRL-1573) stably transfected with either the human CB1 or CB2 receptor (cDNA) were grown in DMEM supplemented with 10% fetal calf serum, 1% Penicillin-Streptomycin and 2 mM L-glutamine. Cells were seeded in 24 wells plate at 5×10^4 cells/well and incubated for 48 hours. Medium was then removed and the adherent cells were washed with PBS. Two hundred μl of serum free medium supplemented with 0.2 mM Ro 20-1724, 0.25% BSA, and 20 mM HEPES was then added to each well. The cells were then activated with 1 μM forskolin in presence of the bicyclic test compounds in concentrations ranging from 10 pM up to 1 μM. The activated cells were then incubated at 37° C. for 20 minutes and the reaction terminated with 1.2 M HCl to a final concentration of 0.1 M. Cells were lyzed by freeze and thaw and the lysate was neutralized with 2 M HEPES, pH 7.5. cAMP was measured in 50 μl aliquots using the [^3H]-cAMP assay system (Amersham).
This experiment was first performed on CB2 receptor transfected cells.

[3] = target: T2, human CB2 receptor; assay: biochemical; format: binding; set-up: purchased Perkin Elmer/NEN; host or cells: CHO cells, stably transfected (membranes); details: for CB2/CB1 affinity ratio: IC50 CB1/IC50 CB2; for IC50: displacement of [3H]WIN 55212-2, hCB2 CHO membranes
Procedure: as §1
The affinities of the novel bicyclic analogs to the CB2 receptor were determined by their ability to displace [^3H]WIN 55212-2 from the receptor in membranes derived from hCB2 stably transfected CHO cells (Perkin Elmer/NEN). Membranes were diluted in assay buffer (10 mM HEPES, 1 mM MgCl2, 1 mM EDTA, 0.3 mg/ml BSA, pH=7.4) to 500 μg protein/ml. 50 μl of diluted membranes (25 μg) were incubated with 0.8 nM of [^3H]WIN 55212-2 in the presence or absence of several concentrations of the bicyclic test compounds in a total volume of 1 ml. Tested compounds were dissolved and diluted as previously described for the hCB1 assay. Non-specific binding was measured by the addition of 10 μM CP 55940. Following 40 minutes incubation at 30° C. reactions were filtered as previously described. Filters for all binding assays were counted in a β-counter and log of analog concentration versus % of binding was plotted. IC50 values were extrapolated from this plot.
as §2

[4] = system: TNF-α secretion from activated RAW 264.7 macrophages; assay: Inhibition of TNF-α in LPS activated macrophages (ELISA); format: cell-based, mouse; details: doses up to 20 μM
Description: (§3) The technique used to quantify the amount of a given protein in a liquid sample, either tissue culture supernatant or body fluid, is based on Enzyme Linked ImmunoSorbent Assay (ELISA) methodology. Either commercially available or established in house, the assay is based on the capture of the protein of interest by specific antibodies bound to the bottom of an ELISA plate well. Unbound material is washed away, the captured protein is then exposed to a secondary antibody generally labeled with horseradish peroxidase (HRP) or alkaline phosphatase (ALP). Again the unbound material is washed away, the samples are then incubated with the appropriate substrate yielding a calorimetric reaction. The reaction is stopped and reading is performed in a spectrophotometer at the appropriate wavelength. Samples are tested at least in duplicate and the appropriate standard curve, consisting of serial dilutions of the recombinant target protein, is incorporated on each plate. Concentration of the protein in the sample is calculated from the standard curve.
(§4) RAW 264.7 macrophages, a mouse cell line (ATCC # TIB-71), were grown in Dulbecco's modified Eagle's medium (DMEM) with 4 mM L-glutamine adjusted to contain 1.5 g/L sodium bicarbonate, 4.5 g/L glucose, and 10% heat inactivated fetal bovine serum. Cells were grown in tissue culture flasks and seeded at appropriate density into 24 wells tissue culture plates. 0.5×10^6 Raw cells in one milliliter were stimulated with 2 μg/ml Lipopolysaccharide E. coli 055:B5 (DIFCO Laboratories). The mouse macrophages were pre-treated for one hour with controls or 10 μM of bicyclic CB2 ligands and later on activated with LPS. Dexamethasone was used as a positive control at 50 nM. Supernatant was collected 4 hours (for PGE2) and 24 hours (for IL-1β and TNF-α) after activation, and the levels of the inflammatory agent under study were determined by ELISA, as previously described. Inhibition was calculated versus vehicle treated cells.
The activation of the macrophages is performed as previously described. The levels of TNF-α are measured in an ELISA assay as previously described. Inhibition is calculated versus vehicle treated cells.

[5] = system: PGE2 secretion from activated RAW 264.7 macrophages; assay: Inhibition of PGE2 in LPS activated macrophages (ELISA); format: cell-based, mouse; details: Mus musculus, RAW264.7; 4 hours after activation, doses 1 μM to 20 μM
Description: as §3, §4
The activation of the macrophages is performed as previously described. The levels of PGE2 are measured in an ELISA assay as previously described. Inhibition is calculated versus vehicle treated cells. […] Results are depicted in FIG. 2B.

[6] = system: ICR male mice; assay: Tail flick model for acute peripheral pain, i.p.; format: in vivo, mouse; details: 10 mg/kg i.p., 330 minutes (five and a half hours)
Procedure: ICR male mice (20-30 g average body weight, Harlan, Israel) were injected i.p. at the volume dose of 5 ml/kg. Each treatment group contained at least 6 animals. Morphine HCl was used as positive control at the final dose of 5 mg/kg. Its vehicle, saline, was also included as control. The test compounds were dissolved in CREMOPHOR EL®:ethanol and diluted 1:20 in saline prior to injection, this second type of vehicle was also included as negative control. The final dose injected varied from 0.1 to 10 mg/kg. At predetermined time points after treatment injection, the animals were placed in the tail flick system (Socrel, model DS 20). Animals were gently held while their tails were located above the photoelectric cell. The tails were then illuminated (21V) at 2 cm from the distal tip and the latency time, measured in seconds, was recorded in duplicates. At the end of the study, the animals were euthanized by i.p. injection of 100 mg/kg sodium pentobarbitone.
Two parameters were used to analyze the results, the latency time and the % of animals showing analgesia. […] The results in both cases are expressed as mean±SE. The differences between the latency times or the % of animals showing analgesia among various treatment groups was analyzed by analysis of variance (ANOVA) followed by post-hoc Tukey's test (for latency) or Fisher's exact test (for % animals). A value of p<0.05 is considered to be statistically significant.

[7] = system: Male Sprague Dawley rats; assay: Inflammatory pain: carrageenan paw edema in rats, thermal and mechanical stimuli; format: in vivo, rat; details: 10 mg/kg i.p., three hours
Procedure: Male Sprague Dawley rats (200 g average body weight, Harlan, Israel) are transiently sedated by placement on dry ice for the duration of the injections. […] Before induction of inflammatory pain and three hours after injection, the animals reactions to pain stimuli were tested in two systems. The first stimulus was thermal and assessed by the Plantar Test according to Hargreaves, using Ugo Basile Model 7370. The scale was set to an intensity of 50 arbitrary units. The latency time till the animal lift a paw as a reaction to the thermal stimulus was recorded for both the inflamed and non-inflamed hind paws. The second stimulus was mechanical (tactile) and assessed using a Dynamic Plantar Sesthesiomether (Ugo Basile Model 73400-002).
The results are measured as the differences between the two hind paws at time 0 and 3 hours both as ALT, for the latency time in the thermal part of the study, and as ΔForce, for the mechanical part of the study.

[8] = system: Lewis rats; format: in vivo, rat; details: 30 mg/kg i.v., 5 times before the disease onset
Procedure: Various animal models of autoimmune encephalomyelitis are known in the art, depending on the method of induction, the strain of the animal and the antigen employed to induce the disease. The impact of bicyclic CB2 ligands was tested in EAE using Lewis rats in which the onset of disease is observed by the appearance of clinical symptoms about 10 days after induction. The disease progress and the clinical score increase and peak around day 15 and spontaneous recovery is observed around day 18 after induction of the disease. The animals (at least 9 per test group at initiation of study, except for the untreated control group that comprised only 5 rats) were maintained on a 12 hours light/12 hours dark regimen, at a constant temperature of 22° C., with food and water ad libitum. EAE was induced in these animals by immunization with s.c. injection to the hind paws of 25 μg of purified guinea pig myelin basic protein (MBP, Sigma) emulsified in 0.1 ml of Complete Freund's Adjuvant (Difco).
Methylprednisolone was used as positive control and it was administered daily for 5 consecutive days i.v. at 30 mg/kg starting from day of disease induction by MBP injection. The results are recorded as clinical score; score of 0 indicates a normal animal with no clinical signs, 0.5 indicates a loss of tonicity in the tail's distal part, 1 indicates whole tail paralysis, 2 indicates paraplegia, 3 indicates quadriplegia, 4 indicates complete body paralysis and moribund state and 5 indicates death. The clinical score of the animals is recorded for 11 days following onset of disease and the area under the curve (AUC) is calculated over this period of time.
Moreover, in a separate study animals were euthanized 15 days after induction of the disease by i.p. injection of 100 mg/kg pentobarbital. Brains and spinal cord were removed and were fixed by overnight incubation with 4% Paraformaldehyde. The cervical segment of the spinal cord was dehydrated using ethanol solutions of increasing concentration and then embedded in paraplast. The spinal cord was then sectioned (10 μm) and staining was performed using hematoxylin and eosin. The stained slides were examined under light microscopy for foci of infiltrating lymphocytes. Number of foci were counted and averaged in 6 sections for each animal. Three groups of at least 4 animals each were tested in this system: untreated, vehicle treated, and animals treated with 0.5 mg/kg of compound A. Results are expressed as average±SD of number of foci.

T1 sequence (P21554 whole entry): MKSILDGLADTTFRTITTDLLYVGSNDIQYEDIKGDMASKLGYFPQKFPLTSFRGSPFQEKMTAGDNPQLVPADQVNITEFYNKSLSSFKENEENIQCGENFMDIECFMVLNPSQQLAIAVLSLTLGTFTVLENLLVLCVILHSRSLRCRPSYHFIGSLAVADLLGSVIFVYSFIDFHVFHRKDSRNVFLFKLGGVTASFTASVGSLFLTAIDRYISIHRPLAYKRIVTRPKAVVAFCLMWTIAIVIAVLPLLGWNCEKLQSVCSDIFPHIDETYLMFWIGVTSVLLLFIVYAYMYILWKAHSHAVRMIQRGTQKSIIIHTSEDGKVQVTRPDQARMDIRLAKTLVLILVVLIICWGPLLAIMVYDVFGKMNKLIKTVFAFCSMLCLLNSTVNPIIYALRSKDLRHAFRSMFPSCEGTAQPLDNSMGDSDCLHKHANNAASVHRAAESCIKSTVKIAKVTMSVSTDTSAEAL

| Compound | IC50 [1] | IC50 ([2]; read-out: IC50 inhibition of cAMP level) | inhibition at 1 µM ([2]; HEK293, read-out: % inhibition at 1 μM) | CB2/CB1 affinity ratio [3] | IC50 [3] | effect on TNF-α secretion [4] | IC50 [5] | % animals showing increased analgesia [6] | latency time [6] | ΔForce (tactile stimulus) [7] | ΔLT (thermal stimulus) [7] | reduction in the AUC of the clinical score [8] |
| --- | --- | --- | --- | --- | --- | --- | --- | --- | --- | --- | --- | --- |
| CCCCCCC(C)(C)c1cc(OC(=O)CCC(=O)O)c([C@H]2CC(=O)[C@H]3C[C@@H]2C3(C)C)c(OC(=O)CCC(=O)O)c1 [Compound S, 4-{4-[1,1-Dimethyl-heptyl]-2,6-bisuccinate-phenyl}-6,6-dimethyl-bicyclo[3.1.1]heptan-2-one] | 117 nM | 0.16 nM | 58% | 77 | 1.52 nM |  |  |  |  |  |  |  |
| CC(C)(CCCCBr)c1cc(O)c(C2CC(=O)C3CC2C3(C)C)c(O)c1 (single isomer, unassigned; (-)) [Compound N, (−)-4-[4-(5-Bromo-1,1-Dimethyl-pentyl)-2,6-dihydroxy-phenyl]-6,6-dimethyl-bicyclo[3.1.1]heptan-2-one] | 50 nM |  |  | 139 | 0.36 nM | none of them did significantly affect TNF-α secretion | 7000 nM | about 60% | 5.4 s | 6 g | 2 s |  |
| C[C@H]1C[C@@H]2[C@H]([C@@H](O)C[C@@]3(C)[C@H]2CC[C@]3(O)C(=O)CO)[C@@]2(C)C=CC(=O)C=C12 [Methylprednisolone, reference compound] |  |  |  |  |  |  |  |  |  |  |  | 34% |
| CC(C)(CCCCC#N)c1cc(O)c([C@H]2CC(=O)[C@H]3C[C@@H]2C3(C)C)c(O)c1 [Compound P, (−)-4-[4-(1,1-Dimethyl-pentyl-5-nitrile)-2,6-dihydroxy-phenyl]-6,6-dimethyl-bicyclo[3.1.1]heptan-2-one] | 227 nM |  |  | 146 | 1.55 nM | none of them did significantly affect TNF-α secretion | 18000 nM |  |  |  |  |  |
